Key:
Format in all cases: in vivo
[1] = system: spring wheat (cv. Passat); experiment: Spring wheat pot trial, severe drought stress (Example 2)
Description: (§1) Spring wheat (cv. Passat) was cultivated in Mitcherlich pots as described above in example 1. The experiment was conducted with 6 replications in a vegetation hall. Experiments were carried out under semi controlled conditions at very low disease-pressure with insignificant infection rates, protected from any undesired rain or water impact. The water consumption of each pot was calculated on the basis of the recorded measurements of the weight of the pots prior to each irrigation event up to the defined set point.
Nitrogen fertilizer (totally 1.75 g N/pot) was added in equal amounts at 3 stages to allow optimal growth conditions throughout the life cycle. All plants/pots were grown at optimal water supply by watering 2-3 times a day to 60% of the water holding capacity of the soil until growth stage 55 (BBCH). Then, pots were only watered to 60% of the maximum water holding capacity of the soil after clear water stress symptoms on the plants were visible to apply severe drought stress.
Compound Ia (62.5 g/l, 2 L in 400 L water/ha) was applied at growth stage 39/49 (BBCH scale), which is an EC formulation of compound Ia. Control plants were not treated.
After ripening of the plants, the grain was harvested and uniformly dried to 5% moisture content. Grain yield per pot, grain yield per ear, number of grains per ear and number of grains per pot were determined as indicators of plant vigor and plant yield. The relation of grain yield to straw added to the grain yield was used to calculate the harvest index.

[2] = system: Maize (Pioneer 34-N-45); experiment: Maize field trial, mixture with epoxiconazol, Colby synergism (Example 6); conditions: 50 g a.i./ha of each compound
Description: Maize was grown in 2008 in a field trial at the BASF experimental station in Dinuba, 10181 Avenue 416, Calif., U.S.A. The variety Pioneer 34-N-45 was planted at a seeding rate of 35.000 plants/ha. The trial was setup as a randomized bloc design with 5 replications, each. Plot size was 43 m^2.
The maize plants were either untreted, treated with epoxiconazol (A3), with compound Ia, and with a mixture comprising compound Ia and epoxiconazol. Epoxiconazol was applied as the commercial formulation OPUS™ (125 g a.i./L, SC formulation) at a dose rate of 0.4 L/ha (50 g a.i./ha). Compound Ia was used as an EC formulation (62.5 g a.i./L) with a dose rate of 0.8 L per hectar (50 g a.i./ha). Epoxiconazol was applied together with compound Ia (as a mixture) using a co-formulation of both compounds (EC formulation, 62.5 g a.i./L each) with a product rate of 0.8 L/ha. The formulation was applied in a total spray volume of 300 L/ha. Compound Ia was sprayed at growth stage 51/55 (BBCH) with a tractor mounted spray boom with VS11003 spray nozzles at 3 bar spray pressure.
No disease symptoms were visible at the application time and no symptoms were detected at later stages.
At maturity the grain was harvested and the grain yield per plot, as an indicator of plant yield, was determined (kg/plot). Finally, the grain yield per hectare was calculated (dt/ha).
The efficacy was calculated as % increase of the grain yield (dt/ha) by each treatment compared to the untreated control.
The expected efficacies of the combinations of the active compounds were estimated using Colby's formula (Colby, S. R., Calculating synergistic and antagonistic responses of herbicide combinations, Weeds, 15, pp. 20-22, 1967) and compared with the observed efficacies.
E=x+y−x·y/100 Colby's formula: • E expected efficacy, expressed in % of the untreated control, when using the mixture of the active compounds A and B at the concentrations a and b • x efficacy, expressed in % of the untreated control, when using the active ingredient A at the concentration a • y efficacy, expressed in % of the untreated control, when using the active ingredient B at the concentration b

[3] = system: spring wheat (cv. Passat); experiment: Spring wheat pot trial, optimal water supply (Example 1)
Description: as §1, with “Mitcherlich pots of known weight were filled with 5.5 kg of sandy dry soil (pH 6.8) and fertilized (P, K and Mg) to optimal growing conditions. The culture was spring” for “Spring”, “Passat); 12 plants per pot.” for “Passat) was cultivated in Mitcherlich pots as described above in example 1.”
Nitrogen fertilizer (totally 1.75 g N/pot) was added in equal amounts at 3 stages to allow optimal growth conditions throughout the life cycle. All plants/pots were grown at optimal water supply by watering 2-3 times a day to 60% of the water holding capacity of the soil.
Compound Ia (62.5 g/L, 2 L in 400 L water/ha) was applied at growth stage 39/49 (BBCH scale), which is an EC formulation of compound Ia. Control plants were not treated.
Plant Height, as an indicator of plant vigor, was measured after heading. At maturity of the plants the grain, as an indicator of yield, was harvested and uniformly dried to 5% moisture content. Straw yield, as an another indicator of plant yield, was also determined and the number of halms with ear per pot was counted at maturity. Number of grains per pot was counted after harvest. Thousand Grain Weight (TGW), as yet another indicator of plant yield, was calculated based on grain yield per pot and number of grains per pot.

[4] = severe drought stress from BBCH 55, 2 L/ha EC at BBCH 39/49

## Cn1cc(C(=O)Nc2ccccc2-c2cc(F)c(F)c(F)c2)c(C(F)F)n1 [Compound Ia, N-(3′,4′,5′-trifluorobiphenyl-2-yl)-3-difluoromethyl-1-methyl-1H-pyrazole-4-carboxamide]
[1]; severe drought stress
  Harvest index, change vs untreated control: (+3%)
  Number of grains per ear, change vs untreated control: (+3%)
  Single ear grain yield, change vs untreated control: (+3%)
[1]; [4]
  Harvest index (grain yield g/grain + straw yield g): 0.42
  Number of grains per ear: 49.9
  Single ear grain yield: 1.31 g/ear
[2]
  Observed efficacy (% increase of grain yield vs untreated control): 0.4%
[2]; BBCH 51/55
  Grain yield: 154.9 dt/ha
[3]; 2 L/ha EC at BBCH 39/49
  Grain yield/pot, change vs untreated control: (+6%)
  Number of halms with ear/pot, change vs untreated control: (+16%)
  Plant height, change vs untreated control: (+2%)
  Straw yield: 70.0 g/pot
  Straw yield, change vs untreated control: (+6%)
  TGW (Thousand Grain Weight): 32.0 g
  TGW, change vs untreated control: (+2%)
[3]; 2 L/ha EC at BBCH 39/49, at maturity
  Number of halms with ear/pot: 37.5
[3]; 2 L/ha EC at BBCH 39/49, grain dried to 5% moisture
  Grain yield/pot: 74.2 g/pot
[3]; EC 62.5 g/L, 2 L in 400 L water/ha at BBCH 39/49, measured after heading
  Plant height: 76.2 cm

Reference: patent US20110263423A1, “Plant Health Composition” (BASF SE, priority 2008, published 2011)
